Results on 19 compounds are retold here after patent US10112937B2, “P2X7 modulators and methods of use” (Janssen Pharmaceutica NV, priority 2013, dated 2018).

SMILES strings stand for the structures.

Assay [1] has as its target T1, human P2X7 (Homo sapiens (Human), UniProt Q99572). Put plainly: P2X7 antagonism in human PBMCs (IL-1β release after LPS + Bz-ATP, ELISA). It counts as cell-based.
Assay [2] addresses T1, human P2X7. Put plainly: Radioligand binding ([3H]A-804598), human P2X7-1321N1 cell membranes.
Procedure: (§1) human or rat P2X7-1321N1 cells were collected and frozen @−80° C. On the day of the experiment, cell membrane preparations were made according to standard published methods. […] The assay was terminated by filtration (GF/B filters pre-soaked with 0.3% PEI) and washed with washing buffer (Tris-HCl 50 mM). The IC50 generated in the binding assay was corrected for tracer concentration and affinity of the tracer to derive at the affinity (Ki) of the test compounds. […] For analysis, each concentration point is averaged from triplicate values and the averaged values are plotted on Graphpad Prism.
Assay [3] deals with T1, human P2X7. Briefly: Ca2+ flux (FLIPR) in 1321N1 cells expressing recombinant human P2X7.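 Further: cells loaded with Calcium-4 dye, preincubated with test compound for 30 min, fluorescence change read 180 s after agonist addition.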 It counts as cell-based.
Assay [4] addresses T2, rat P2X7 (Rattus norvegicus (Rat), UniProt Q64663). Briefly: Ca2+ flux (FLIPR) in 1321N1 cells expressing recombinant rat P2X7.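 Further: Calcium-4 dye fluorescence change read 180 s after agonist addition, with cells preincubated 30 min with compound and dye in 96-well plates.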 The assay is classed as cell-based. On the technique in general: Calcium assays in cells follow changes in intracellular calcium, usually with a dye or a luminescent sensor.
Procedure: P2X7 Antagonism in Recombinant Human P2X7 Cells or Recombinant Rat P2X7 Cells: (a) Ca^2+ Flux and (b) Radioligand Binding
1321N1 cells expressing the recombinant human or rat P2X7 channel was cultured in HyQ DME/(HyClone/Dulbecco's Modified Eagle Medium) high glucose supplemented with 10% Fetal Bovine Serum (FBS) and appropriate selection marker. Cells were seeded at a density of 25000 cells/well (96-well clear bottom black walled plates) in 100 μl volume/well. On the day of the experiment, cell plates were washed with assay buffer, containing (in mM): 130 NaCl, 2 KCl, 1 CaCl2, 1 MgCl2, 10 HEPES, 5 glucose; pH 7.40 and 300 mOs. After the wash, cells were loaded with the Calcium-4 dye (Molecular Device) and incubated in the dark for 60 minutes. Test compounds were prepared at 250× the test concentration in neat DMSO. Intermediate 96-well compound plates were prepared by transferring 1.2 μL of the compound into 300 μL of assay buffer. A further 3× dilution occurred when transferring 50 μL/well of the compound plate to 100 μL/well in the cell plate. Cells were incubated with test compounds and dye for 30 minutes. […] The fluorescence change was measured 180 seconds after adding the agonist.
The target of assay [5] is T2, rat P2X7. Briefly: Radioligand binding ([3H]A-804598), rat P2X7-1321N1 cell membranes. The note with it: rat P2X7-1321N1 membranes, tritiated A-804598.
Procedure: as §1
[6] abbreviates: human PBMCs, test compound 10 μM.
The mark [7] stands for this setting: human P2X7-1321N1 membranes, tritiated A-804598.
The mark [8] stands for this setting: 1321N1 cells, recombinant human P2X7, 250 μM BzATP.
The mark [9] stands for this setting: 1321N1 cells, recombinant rat P2X7, 250 μM BzATP.
The mark [10] stands for this setting: 10 μM test compound, human PBMCs, LPS + Bz-ATP.
The mark [11] stands for this setting: [3H]A-804598, human P2X7-1321N1 membranes.
[12] abbreviates: Ca2+ flux, 250 μM BzATP, human P2X7 1321N1 cells.
Where [13] appears, read: Ca2+ flux, 250 μM BzATP, rat P2X7 1321N1 cells.

T1 sequence (Q99572 whole entry): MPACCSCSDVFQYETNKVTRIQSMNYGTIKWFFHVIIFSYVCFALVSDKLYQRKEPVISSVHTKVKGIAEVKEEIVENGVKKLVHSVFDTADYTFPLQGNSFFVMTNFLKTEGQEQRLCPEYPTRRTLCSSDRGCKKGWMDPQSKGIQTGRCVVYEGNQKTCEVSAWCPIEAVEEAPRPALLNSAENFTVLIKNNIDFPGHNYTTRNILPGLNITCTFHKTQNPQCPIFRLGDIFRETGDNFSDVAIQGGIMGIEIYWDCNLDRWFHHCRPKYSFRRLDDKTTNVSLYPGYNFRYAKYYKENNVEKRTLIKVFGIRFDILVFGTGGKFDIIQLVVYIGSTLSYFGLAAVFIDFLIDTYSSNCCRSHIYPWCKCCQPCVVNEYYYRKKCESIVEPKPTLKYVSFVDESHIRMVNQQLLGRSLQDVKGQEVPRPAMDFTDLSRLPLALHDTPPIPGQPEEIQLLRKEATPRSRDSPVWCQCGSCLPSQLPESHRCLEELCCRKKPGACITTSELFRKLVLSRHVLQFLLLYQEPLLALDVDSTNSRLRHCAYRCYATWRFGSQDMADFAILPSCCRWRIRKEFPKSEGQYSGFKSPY
T2 sequence (Q64663 whole entry): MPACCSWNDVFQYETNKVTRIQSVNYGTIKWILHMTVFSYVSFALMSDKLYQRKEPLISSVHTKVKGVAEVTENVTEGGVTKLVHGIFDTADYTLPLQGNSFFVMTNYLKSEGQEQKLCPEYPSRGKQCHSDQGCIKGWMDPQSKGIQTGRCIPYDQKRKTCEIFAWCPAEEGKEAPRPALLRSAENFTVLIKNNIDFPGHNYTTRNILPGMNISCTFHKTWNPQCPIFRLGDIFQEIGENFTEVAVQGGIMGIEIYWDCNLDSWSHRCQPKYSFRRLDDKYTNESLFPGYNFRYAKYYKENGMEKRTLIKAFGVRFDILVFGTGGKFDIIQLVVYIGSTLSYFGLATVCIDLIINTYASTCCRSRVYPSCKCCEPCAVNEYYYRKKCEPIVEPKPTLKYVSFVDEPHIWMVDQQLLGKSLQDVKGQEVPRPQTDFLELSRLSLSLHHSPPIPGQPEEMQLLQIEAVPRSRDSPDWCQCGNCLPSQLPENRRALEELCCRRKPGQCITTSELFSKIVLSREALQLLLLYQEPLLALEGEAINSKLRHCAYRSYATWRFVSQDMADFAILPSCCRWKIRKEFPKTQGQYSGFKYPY

Broadly, the Ki is a measure of affinity in units of concentration, obtained from inhibition or displacement. Read a low Ki as higher affinity. As usually defined, the IC50 is the concentration that inhibits the measured activity by half. On to `Cc1cc(-n2nnc3c2CCN(C(=O)c2ccnc(C(F)(F)F)c2F)C3C)ncc1F` (stereo not shown) [Example 367, (3-fluoro-2-(trifluoromethyl)pyridin-4-yl)(1-(5-fluoro-4-methylpyridin-2-yl)-4-methyl-6,7-dihydro-1H-[1,2,3]triazolo[4,5-c]pyridin-5(4H)-yl)methanone], for which the “PBMC 10 μM (% control)” value at human P2X7 [1] (setting [6]) is recorded as 0.9 % control. Also, the Ki at human P2X7 [2] (setting [7]) worked out at 115 nM. The IC50 at human P2X7 [3] (setting [8]) was determined as 75.7 nM; at rat P2X7 [4] (setting [9]), 2150 nM.

With `Cc1c(C(=O)N2Cc3nnn(-c4ccn[nH]4)c3C[C@H]2C)cccc1C(F)(F)F` (single isomer, unassigned) [Example 346, (R*)-(6-methyl-1-(1H-pyrazol-3-yl)-6,7-dihydro-1H-[1,2,3]triazolo[4,5-c]pyridin-5(4H)-yl)(2-methyl-3-(trifluoromethyl)phenyl)methanone], the “PBMC 10 μM (% control)” value at human P2X7 [1] (setting [6]) is listed as −2.3 % control. At human P2X7 [2] (setting [7]), this compound returned a Ki of 10 nM. In addition, the figures for the IC50 at human P2X7 [3] (setting [8]) and at rat P2X7 [4] (setting [9]) were 6.5 nM and 2.2 nM, respectively.

In the case of `CC1c2n[nH]c(-c3ccc(F)cn3)c2CCN1C(=O)c1cccc(C(F)(F)F)c1Cl` (stereo not shown) [Example 430, (2-chloro-3-(trifluoromethyl)phenyl)(3-(5-fluoropyridin-2-yl)-7-methyl-4,5-dihydro-2H-pyrazolo[3,4-c]pyridin-6(7H)-yl)methanone], the “PBMC 10 μM (% control)” value at human P2X7 [1] (setting [10]) is −4.0 % control. Besides, on human P2X7 [2] (setting [11]), affinity was put at a Ki of 36.3 nM. Moreover, the figures for the IC50 on human P2X7 [3] (setting [12]) and on rat P2X7 [4] (setting [13]) were 70.8 nM and 158 nM, respectively.

As to `Cc1cc(-n2nnc3c2CCN(C(=O)c2ccnc(C(F)(F)F)c2F)[C@@H]3C)ncc1F` (single isomer, unassigned) [Example 368, (R*)-(3-fluoro-2-(trifluoromethyl)pyridin-4-yl)(1-(5-fluoro-4-methylpyridin-2-yl)-4-methyl-6,7-dihydro-1H-[1,2,3]triazolo[4,5-c]pyridin-5(4H)-yl)methanone], the “PBMC 10 μM (% control)” value on human P2X7 [1] (setting [6]) is reported as −2.3 % control. This compound registered an inhibition constant Ki on human P2X7 [2] (setting [7]) of 39.8 nM. Moreover, the IC50 at human P2X7 [3] (setting [8]) came to 22.6 nM; on rat P2X7 [4] (setting [9]), 235 nM.

`Cc1c(C(=O)N2Cc3nnn(-c4cc[nH]n4)c3CC2C)cccc1C(F)(F)F` (stereo not shown) [Example 154, (6-methyl-1-(1H-pyrazol-3-yl)-6,7-dihydro-1H-[1,2,3]triazolo[4,5-c]pyridin-5(4H)-yl)(2-methyl-3-(trifluoromethyl)phenyl)methanone]: the “PBMC 10 μM (% control)” value at human P2X7 [1] (setting [6]) was −0.6 % control. Further, the Ki on human P2X7 [2] (setting [7]) amounted to 7.9 nM.

Consider `Cc1ccnc(-n2nnc3c2CCN(C(=O)c2cccc(Cl)c2Cl)[C@H]3C)n1` (single isomer, unassigned) [Example 392, (S*)-(2,3-dichlorophenyl)(4-methyl-1-(4-methylpyrimidin-2-yl)-6,7-dihydro-1H-[1,2,3]triazolo[4,5-c]pyridin-5(4H)-yl)methanone], for which, at human P2X7 [1] (setting [6]), the “PBMC 10 μM (% control)” value came out at 14.4 % control. This compound also displayed a Ki on human P2X7 [2] (setting [7]) of 4 nM. For the same compound, the figures for the IC50 on human P2X7 [3] (setting [8]) and on rat P2X7 [4] (setting [9]) were 3.6 nM and 47.3 nM, respectively.

Take `Cc1cc(-n2nnc3c2CCN(C(=O)c2ccnc(C(F)(F)F)c2Cl)C3C)ncc1F` (stereo not shown) [Example 370, (3-chloro-2-(trifluoromethyl)pyridin-4-yl)(1-(5-fluoro-4-methylpyridin-2-yl)-4-methyl-6,7-dihydro-1H-[1,2,3]triazolo[4,5-c]pyridin-5(4H)-yl)methanone]: the “PBMC 10 μM (% control)” value at human P2X7 [1] (setting [6]) is listed as −2.2 % control. At human P2X7 [2] (setting [7]), the Ki came to 63.1 nM. In addition, the figures for the IC50 at human P2X7 [3] (setting [8]) and at rat P2X7 [4] (setting [9]) were 59.7 nM and 256 nM, respectively.

As to `CC1c2n[nH]c(-c3ccc(F)cc3)c2CCN1C(=O)c1cccc(Cl)c1Cl` (stereo not shown) [Example 435, (2,3-dichlorophenyl)(3-(4-fluorophenyl)-7-methyl-4,5-dihydro-2H-pyrazolo[3,4-c]pyridin-6(7H)-yl)methanone], the “PBMC 10 μM (% control)” value at human P2X7 [1] (setting [10]) is −11.3 % control. On human P2X7 [2] (setting [11]), the Ki was 100 nM. Moreover, the IC50 on human P2X7 [3] (setting [12]) was 58.6 nM.

As to `C[C@@H]1c2nnn(-c3cccc(C(F)(F)F)n3)c2CCN1C(=O)c1cccc(C(F)(F)F)c1Cl` (single isomer, unassigned) [Example 379, (R*)-(2-chloro-3-(trifluoromethyl)phenyl)(4-methyl-1-(6-(trifluoromethyl)pyridin-2-yl)-6,7-dihydro-1H-[1,2,3]triazolo[4,5-c]pyridin-5(4H)yl)methanone], the “PBMC 10 μM (% control)” value at human P2X7 [1] (setting [6]) is given as 3.8 % control. The same compound displayed a Ki at human P2X7 [2] (setting [7]) of 200 nM. Also, the 50% inhibitory concentration (IC50) on human P2X7 [3] (setting [8]) turned out to be 113 nM; on rat P2X7 [4] (setting [9]) it was 47.4 nM.

On to `C[C@H]1Cc2c(nnn2-c2ccn[nH]2)CN1C(=O)c1cccc(C(F)(F)F)c1F` (single isomer, unassigned) [Example 349, (S*)-(2-fluoro-3-(trifluoromethyl)phenyl)(6-methyl-1-(1H-pyrazol-5-yl)-6,7-dihydro-1H-[1,2,3]triazolo[4,5-c]pyridin-5(4H)-yl)methanone], for which, on human P2X7 [1] (setting [6]), the “PBMC 10 μM (% control)” value came to 0.7 % control. For the same compound, the Ki at human P2X7 [2] (setting [7]) came out at 7.9 nM. In addition, the IC50 was 2.7 nM at human P2X7 [3] (setting [8]) and 2.2 nM on rat P2X7 [4] (setting [9]).

On to `CC1c2n[nH]c(-c3ccc(F)cc3)c2CCN1C(=O)c1cccc(C(F)(F)F)c1Cl` (stereo not shown) [Example 434, (2-chloro-3-(trifluoromethyl)phenyl)(3-(4-fluorophenyl)-7-methyl-4,5-dihydro-2H-pyrazolo[3,4-c]pyridin-6(7H)-yl)methanone], for which the “PBMC 10 μM (% control)” value at human P2X7 [1] (setting [10]) worked out at 3.1 % control. Also, at human P2X7 [2] (setting [11]), the Ki amounted to 47.9 nM. In addition, the IC50 on human P2X7 [3] (setting [12]) stood at 43.5 nM; on rat P2X7 [4] (setting [13]) it was 432 nM.

`CC1c2n[nH]c(-c3ccccn3)c2CCN1C(=O)c1cccc(C(F)(F)F)c1Cl` (stereo not shown) [Example 432, (2-chloro-3-(trifluoromethyl)phenyl)(7-methyl-3-(pyridin-2-yl)-4,5-dihydro-2H-pyrazolo[3,4-c]pyridin-6(7H)-yl)methanone]: the “PBMC 10 μM (% control)” value at human P2X7 [1] (setting [10]) is 0.3 % control. At human P2X7 [2] (setting [11]), the affinity corresponds to a Ki of 15.8 nM. On rat P2X7 [4] (setting [13]), the IC50 was determined as 32.8 nM.

Turning to `C[C@H]1Cc2c(nnn2-c2ncc(F)cn2)CN1C(=O)c1ccc(Cl)cc1F` [Example 156, (S)-(4-chloro-2-fluorophenyl)(1-(5-fluoropyrimidin-2-yl)-6-methyl-6,7-dihydro-1H-[1,2,3]triazolo[4,5-c]pyridin-5(4H)-yl)methanone], the “PBMC 10 μM (% control)” value at human P2X7 [1] (setting [6]) is 1.8 % control. This compound also returned a Ki at human P2X7 [2] (setting [7]) of 6.3 nM.

As for `CC1c2nnn(-c3cccc(C(F)(F)F)n3)c2CCN1C(=O)c1cccc(C(F)(F)F)c1Cl` (stereo not shown) [Example 378, (2-chloro-3-(trifluoromethyl)phenyl)(4-methyl-1-(6-(trifluoromethyl)pyridin-2-yl)-6,7-dihydro-1H-[1,2,3]triazolo[4,5-c]pyridin-5(4H)-yl)methanone], the “PBMC 10 μM (% control)” value on human P2X7 [1] (setting [6]) is on record as −0.1 % control. At human P2X7 [2] (setting [7]), this compound yielded a Ki of 158 nM. Besides, the IC50 at human P2X7 [3] (setting [8]) stood at 78.9 nM; on rat P2X7 [4] (setting [9]) it was 137 nM.

As for `C[C@@H]1c2nnn(-c3ncccn3)c2CCN1C(=O)c1cccc(C(F)(F)F)c1F` (single isomer, unassigned) [Example 271, (R*)-(2-fluoro-3-(trifluoromethyl)phenyl)(4-methyl-1-(pyrimidin-2-yl)-6,7-dihydro-1H-[1,2,3]triazolo[4,5-c]pyridin-5(4H)-yl)methanone], the “PBMC 10 μM (% control)” value is listed as 14.3 % control at human P2X7 [1] (setting [6]) and −3.7 % control on human P2X7 [1] (test compound 10 μM, LPS 30 ng/ml + 0.5 mM Bz-ATP). Moreover, the IC50 at human P2X7 [3] (setting [8]) is 1.7 nM; on rat P2X7 [4] (setting [9]) it was 20 nM. Besides, the Ki on rat P2X7 [5] is 1.6 nM.

On to `CC1c2n[nH]c(-c3ccnn3C)c2CCN1C(=O)c1cccc(C(F)(F)F)c1Cl` (stereo not shown) [Example 437, (2-chloro-3-(trifluoromethyl)phenyl)(7-methyl-3-(1-methyl-1H-pyrazol-5-yl)-4,5-dihydro-2H-pyrazolo[3,4-c]pyridin-6(7H)-yl)methanone], for which the “PBMC 10 μM (% control)” value on human P2X7 [1] (setting [10]) is listed as −11.7 % control. Further, the Ki at human P2X7 [2] (setting [11]) was found to be 144 nM. Also, the figures for the IC50 at human P2X7 [3] (setting [12]) and at rat P2X7 [4] (setting [13]) were 240 nM and 14600 nM, respectively.

As to `CC1c2n[nH]c(-c3cnccn3)c2CCN1C(=O)c1cccc(Cl)c1Cl` (stereo not shown) [Example 433, (2,3-dichlorophenyl)(7-methyl-3-(pyrazin-2-yl)-4,5-dihydro-2H-pyrazolo[3,4-c]pyridin-6(7H)-yl)methanone], at human P2X7 [1] (setting [10]), the “PBMC 10 μM (% control)” value is −3.6 % control. Moreover, affinity at human P2X7 [2] (setting [11]) was put at a Ki of 15.8 nM. Also, the IC50 on human P2X7 [3] (setting [12]) is 18.9 nM.

As for `CC1c2nnn(-c3ncc[nH]3)c2CCN1C(=O)c1cccc(C(F)(F)F)c1Cl` (stereo not shown) [Example 393, (1-(1H-imidazol-2-yl)-4-methyl-6,7-dihydro-1H-[1,2,3]triazolo[4,5-c]pyridin-5(4H)-yl)(2-chloro-3-(trifluoromethyl)phenyl)methanone], the “PBMC 10 μM (% control)” value on human P2X7 [1] (setting [6]) is 8.5 % control. Besides, the Ki at human P2X7 [2] (setting [7]) is 89.1 nM. The results for the IC50 on human P2X7 [3] (setting [8]) and at rat P2X7 [4] (setting [9]) were 51.2 nM and 11100 nM, respectively.

Consider `CC1c2n[nH]c(-c3ncccn3)c2CCN1C(=O)c1cccc(Cl)c1Cl` (stereo not shown) [Example 431, (2,3-dichlorophenyl)(7-methyl-3-(pyrimidin-2-yl)-4,5-dihydro-2H-pyrazolo[3,4-c]pyridin-6(7H)-yl)methanone], for which the “PBMC 10 μM (% control)” value on human P2X7 [1] (setting [10]) is listed as −6.4 % control. In addition, the affinity on human P2X7 [2] (setting [11]), expressed as Ki, was 12.3 nM. Also, the IC50 is 6 nM on human P2X7 [3] (setting [12]) and 320 nM on rat P2X7 [4] (setting [13]).
